Data from US12583895B2, “Polypeptides for restoring endothelial function and methods of use thereof” (Vanderbilt University, priority 2019, dated 2026).
“Also recorded” adds a separate entry of the source. Non-standard residues stand in square brackets, D forms with d. No end group written: not given here. pS = N[C@@H](COP(=O)(O)O)C(=O)O

Assays:
rat aorta [1] = test: Endothelial-dependent relaxation of rat aorta after BzATP (ATP / P2X7R) injury, muscle bath; type: cell-based; details: BzATP 1 mM, room temperature; for endothelial function (percent relaxation to carbachol of PE-precontracted tissue) after BzATP injury: peptide 100 and 500 μM, 1 hour
Protocol: Freshly isolated rat aorta was treated with 3′-O-(4-Benzoyl)benzoyl adenosine 5′-triphosphate (BzATP, 1 mM), an analogue of ATP, to induce injury in the absence or presence of NiPp (100 and 500 μM) for 1 hour at room temperature. To determine the effect of injury on endothelial function, phenylephrine (PE)-precontracted tissues were treated with carbachol (CCH; 5×10^−7 M) and the percent relaxation was determined as a change to the maximal PE-induced contraction. Data are reported as mean responses±standard deviation. n=5-6. *p<0.05, paired t-test.
Freshly isolated rat aorta was treated with 3′-O-(4-Benzoyl)benzoyl adenosine 5′-triphosphate (BzATP, 1 mM), an analogue of ATP, to induce injury in the absence or presence of NiPp, NiPp3, or scr3NiPp (A, 100 and B, 500 μM) for 1 hour at room temperature. To determine the effect of injury on endothelial function, phenylephrine (PE)-precontracted tissues were treated with escalating doses of carbachol (CCH; 10^−10 to 10^−5M) and the percent relaxation was determined as a change to the maximal PE-induced contraction. n=7. *p<0.05, two-way ANOVA with Tukey post-tests. There were significant differences between BzATP-treated vs ctrl or NiPp-treated RA.
Tissue rings were then transferred to NS and continued incubation in the absence or presence of NiPp (500 μM) for 2 h at room temperature. Control rings (Ctrl) were incubated in PL for 2.5 h. […] After treatments, RA were suspended in the muscle bath, contracted with PE and then treated with escalating doses of carbachol (CCH; 10^−8 to 10^−5M). The percent relaxation was determined as a change to the maximal PE-induced contraction. Percent relaxation to 5×10^−7 M CCH is shown. n=5-7 rats. *p<0.05 in one-way ANOVA with Tukey post-test. Data are expressed as mean±SD.
NiPp was synthesized at 3 separate times and tested in the muscle bath using rat aorta (RA). RA was either left untreated (Ctrl) or treated with BzATP (1 mM) in the absence of presence of NiPp (500 μM) in PL for 2 h at room temperature. After treatments, RA were suspended in the muscle bath, contracted with PE and then treated with escalating doses of carbachol 5×10^−7 M CCH. The percent relaxation was determined as a change to the maximal PE-induced contraction. […] Data are expressed as mean±SD.
Measurement of endothelial-dependent relaxation. […]
(§1) This produced the maximal force tension relationship as previously described. […] Contractile responses were defined by stress, calculated using force generated by tissues as follows: stress (×10^5 N/m^2)=force (g)×0.0987/area, where area=wet weight (mg)/at maximal length (mm)]/1.055.
(§2) Relaxation was calculated as percent change in stress compared to the maximal PE-induced contraction (set as 100%). […]

rat aorta [2] = test: Endothelial-dependent relaxation of rat aorta after subfailure stretch injury, muscle bath; type: cell-based; details: stretch about 2 times resting length, peptide 500 μM, 1 hour, room temperature
Protocol: Freshly isolated rat aorta (RA) was subjected to subfailure stretch and incubated in PL in the absence (S) or presence of NiPp (500 μM) for 1 h at room temperature. […] The percent relaxation was determined as a change to the maximal PE-induced contraction. n=5 rats; #p<0.05, two-way ANOVA. […] Quantification of relative phosphorylation to total p38MAPK level is shown. N=10. *p<0.05, in one-way ANOVA with Tukey post-test. NiPp restores endothelial dysfunction and reduced p38 MAPK phosphorylation induced by stretch injury in RA.
Freshly isolated rat aorta was subjected to subfailure stretch (to haptic endpoint, approximately 2 times the resting length) and treated with NiPp, NiPp3, or scr3NiPp (500 μM) for 1 hour at room temperature. To determine the effect of injury on endothelial function, phenylephrine-precontracted tissues were treated with carbachol (CCH; 10^−8 to 10^−5M) and the percent relaxation was determined as a change to the maximal PE-induced contraction. Data are reported as mean responses±standard deviation. n=8. *p<0.05, two-way ANOVA with Tukey post-tests. There were significant differences between Stretch (S) vs. ctrl or NiPp-treated RA.
Measurement of endothelial-dependent relaxation. Rings of HSV or RA (1-2 mm) were suspended in a muscle bath containing a bicarbonate buffer (120 mM sodium chloride, 4.7 mM potassium chloride, 1.0 mM magnesium sulfate, 1.0 mM monosodium phosphate, 10 mM glucose, 1.5 mM calcium chloride, and 25 mM sodium bicarbonate, pH 7.4) equilibrated with 95% O2/5% CO2 at 37° C. for 1 h at a resting tension of 1 g, manually stretched to three times the resting tension, and maintained at resting tension for an additional 1 h.
as §1, §2

YARAAARQARAAGSPPLA(pS)AIARR (YARAAARQARAAGSPPLA[pS]AIARR) [scr3NiPp]
endothelial function (percent relaxation to carbachol of PE-precontracted tissue) after BzATP injury (rat aorta [1]): did not restore | endothelial function (percent relaxation to carbachol) after subfailure stretch injury (rat aorta [2]): did not restore

YARAAARQARASPAARRASAILPG (not fully specified (residue 19)) [NiPp3]
endothelial function (percent relaxation to carbachol of PE-precontracted tissue) after BzATP injury (rat aorta [1]): did not restore | endothelial function (percent relaxation to carbachol) after subfailure stretch injury (rat aorta [2]): did not restore

YARAAARQARASPAARRA(pS)AILPG (YARAAARQARASPAARRA[pS]AILPG) [NiPp, Cell-permeant phosphopeptide mimetic of Niban: transduction domain … conjugated to the region surrounding serine 602 of Niban]
endothelial function (percent relaxation to 5×10^−7 M CCH) after P2X7R activation by BzATP (rat aorta [1]; NiPp 500 μM in PL, 1 h): prevented; also recorded: restores | endothelial function (percent relaxation to carbachol of PE-precontracted tissue) after BzATP injury (rat aorta [1]): restored | endothelial function (percent relaxation to carbachol) after subfailure stretch injury (rat aorta [2]): restores
